# Test results from US7767659B2, “Synthesis of naturally occurring ecteinascidins and related compounds” (Pharma Mar, S.A., priority 2002, dated 2010).
# Where two headings read alike, the source gives them in different places.
# What was measured:
# A-549 = test: cells; conditions: for GI50: read-out: GI50 A549; for CC50: read-out: LC50 A549
# Procedure, shortened: (§1)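 Colorimetric SRB read (490 nm) on triplicate wells after 48 h at 37 °C, 5% CO2. Dose range 10 to 10^−8 μg/ml; 5×10^3 cells/well pre-attached 18 h.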
# HT-29 = test: cells; conditions: for GI50: read-out: GI50 HT29; for CC50: read-out: LC50 HT29
# Procedure, shortened: as §1
# LoVo = test: cells; conditions: for GI50: read-out: GI50 LOVO; for CC50: read-out: LC50 LOVO
# Procedure, shortened: as §1
# SK-BR-3 = test: Inhibition of cells growth by colorimetric assay (SRB); conditions: for GI50: read-out: GI50 SK-BR3; for CC50: read-out: LC50 SK-BR3
# Procedure, shortened: as §1
# IGROV-ET = test: as above; conditions: for GI50: read-out: GI50 IGROV-ET; for CC50: read-out: LC50 IGROV-ET
# Procedure, shortened: as §1
# HeLa = test: as above; conditions: for GI50: read-out: GI50 HELA; for CC50: read-out: LC50 HELA
# Procedure, shortened: as §1
# HeLa-APL = test: as above; conditions: for CC50: read-out: LC50 HELA-APL
# Procedure, shortened: as §1
# SK-MEL-28 = test: as above; conditions: for GI50: read-out: GI50 MEL-28; for CC50: read-out: LC50 MEL-28
# Procedure, shortened: as §1
# PANC-1 = test: as above; conditions: for GI50: read-out: GI50 PANC-1; for CC50: read-out: LC50 PANC-1
# Procedure, shortened: as §1
# LoVo-Dox = test: as above; conditions: for GI50: read-out: GI50 LOVO-DOX; for CC50: read-out: LC50 LOVO-DOX
# Procedure, shortened: as §1
# LNCaP = test: as above; conditions: for GI50: read-out: GI50 LNCAP; for CC50: read-out: LC50 LNCAP
# Procedure, shortened: as §1
# IGROV-1 = test: as above; conditions: for GI50: read-out: GI50 IGROV; for CC50: read-out: LC50 IGROV
# Procedure, shortened: as §1
# DU-145 = test: as above; conditions: for GI50: read-out: GI50 DU145; for CC50: read-out: LC50 DU145
# Procedure, shortened: as §1
# K-562 = test: as above; conditions: for GI50: read-out: GI50 K562; for CC50: read-out: LC50 K562
# Procedure, shortened: as §1
# [1] = IGROV-ET, SRB, 48 hours exposure
# [2] = HELA-APL, SRB, 48 hours exposure
# [3] = LOVO-DOX, SRB, 48 hours exposure
compound,measurement,setting,value
C=CCN1[C@@H]2c3c(cc(C)c(OC)c3O)C[C@H]1[C@H](C#N)N1C2[C@@H]2SCC(NC(=O)CCCCCCCCCCCCCCC)C(=O)OC[C@H]1c1c3c(c(C)c(OC(C)=O)c12)OCO3 (stereo partly shown) [compound 26],GI50,"A-549; Homo sapiens, A549, 48 h",11.6 µM
same,CC50,"A-549; Homo sapiens, A549, 48 h",11.6 µM
same,IC (TGI),"A-549; Homo sapiens, A549, 48 h, read-out: TGI A549",11.6 µM
same,GI50,"HT-29; Homo sapiens, HT-29, 48 h",11.6 µM
same,CC50,"HT-29; Homo sapiens, HT-29, 48 h",11.6 µM
same,IC (TGI),"HT-29; Homo sapiens, HT-29, 48 h, read-out: TGI HT29",11.6 µM
same,GI50,"LoVo; Homo sapiens, LoVo, 48 h",11.6 µM
same,CC50,"LoVo; Homo sapiens, LoVo, 48 h",11.6 µM
same,IC (TGI),"LoVo; Homo sapiens, LoVo, 48 h, read-out: TGI LOVO",11.6 µM
same,GI50,"SK-BR-3; Homo sapiens, SK-BR-3, 48 h",4230 nM
same,CC50,"SK-BR-3; Homo sapiens, SK-BR-3, 48 h",11.6 µM
same,IC (TGI),"SK-BR-3; Homo sapiens, SK-BR-3, 48 h, read-out: TGI SK-BR3",9.2 µM
same,GI50,"IGROV-ET; Homo sapiens, 48 h",11.6 µM
same,CC50,"IGROV-ET; Homo sapiens, 48 h",11.6 µM
same,IC (TGI),"IGROV-ET; Homo sapiens, 48 h, read-out: TGI IGROV-ET",11.6 µM
same,GI50,"HeLa; Homo sapiens, HeLa, 48 h",11.6 µM
same,CC50,"HeLa; Homo sapiens, HeLa, 48 h",11.6 µM
same,IC (TGI),"HeLa; Homo sapiens, HeLa, 48 h, read-out: TGI HELA",11.6 µM
same,CC50,"HeLa-APL; Homo sapiens, 48 h",11.6 µM
same,GI50,"SK-MEL-28; Homo sapiens, SK-MEL-28, 48 h",11.6 µM
same,CC50,"SK-MEL-28; Homo sapiens, SK-MEL-28, 48 h",11.6 µM
same,IC (TGI),"SK-MEL-28; Homo sapiens, SK-MEL-28, 48 h, read-out: TGI MEL-28",11.6 µM
same,GI50,"PANC-1; Homo sapiens, PANC-1, 48 h",11.6 µM
same,CC50,"PANC-1; Homo sapiens, PANC-1, 48 h",11.6 µM
same,IC (TGI),"PANC-1; Homo sapiens, PANC-1, 48 h, read-out: TGI PANC-1",11.6 µM
same,GI50,"LoVo-Dox; Homo sapiens, 48 h",11.6 µM
same,CC50,"LoVo-Dox; Homo sapiens, 48 h",11.6 µM
same,IC (TGI),"LoVo-Dox; Homo sapiens, 48 h, read-out: TGI LOVO-DOX",11.6 µM
same,GI50,"LNCaP; Homo sapiens, LNCaP, 48 h",3820 nM
same,CC50,"LNCaP; Homo sapiens, LNCaP, 48 h",11.6 µM
same,IC (TGI),"LNCaP; Homo sapiens, LNCaP, 48 h, read-out: TGI LNCAP",11.6 µM
same,GI50,"IGROV-1; Homo sapiens, IGROV-1, 48 h",6.84 µM
same,CC50,"IGROV-1; Homo sapiens, IGROV-1, 48 h",11.6 µM
same,IC (TGI),"IGROV-1; Homo sapiens, IGROV-1, 48 h, read-out: TGI IGROV",11.6 µM
same,GI50,"DU-145; Homo sapiens, DU-145, 48 h",11.6 µM
same,CC50,"DU-145; Homo sapiens, DU-145, 48 h",11.6 µM
same,IC (TGI),"DU-145; Homo sapiens, DU-145, 48 h, read-out: TGI DU145",11.6 µM
same,GI50,"K-562; Homo sapiens, K562, 48 h",2300 nM
same,CC50,"K-562; Homo sapiens, K562, 48 h",10.6 µM
same,IC (TGI),"K-562; Homo sapiens, K562, 48 h, read-out: TGI K562",4.94 µM
C=CCN1C2Cc3cc(C)c(OC)c(O)c3C1C1C3SCC(NC(=O)CC)C(=O)OCC(c4c5c(c(C)c(OC(C)=O)c43)OCO5)N1C2C#N (stereo not shown) [compound 27],TGI A549,"A-549; A549, SRB, 48 hours exposure",2.06E−07 Molar
same,GI50,"A-549; A549, SRB, 48 hours exposure",0.0626 µM
same,CC50,"A-549; A549, SRB, 48 hours exposure",1.89 µM
same,TGI HT29,"HT-29; HT29, SRB, 48 hours exposure",1.42E−06 Molar
same,GI50,"HT-29; HT29, SRB, 48 hours exposure",0.0756 µM
same,CC50,"HT-29; HT29, SRB, 48 hours exposure",14.2 µM
same,TGI LOVO,"LoVo; LOVO, SRB, 48 hours exposure",2.36E−07 Molar
same,GI50,"LoVo; LOVO, SRB, 48 hours exposure",0.0804 µM
same,CC50,"LoVo; LOVO, SRB, 48 hours exposure",0.707 µM
same,TGI SK-BR3,"SK-BR-3; SK-BR3, SRB, 48 hours exposure",1.97E−07 Molar
same,GI50,"SK-BR-3; SK-BR3, SRB, 48 hours exposure",55.8 nM
same,CC50,"SK-BR-3; SK-BR3, SRB, 48 hours exposure",1.05 µM
same,TGI IGROV-ET,IGROV-ET; [1],3.87E−07 Molar
same,GI50,IGROV-ET; [1],0.165 µM
same,CC50,IGROV-ET; [1],0.915 µM
same,TGI HELA,"HeLa; HELA, SRB, 48 hours exposure",2.75E−07 Molar
same,GI50,"HeLa; HELA, SRB, 48 hours exposure",0.0978 µM
same,CC50,"HeLa; HELA, SRB, 48 hours exposure",0.786 µM
same,TGI HELA-APL,HeLa-APL; [2],3.04E−07 Molar
same,GI50,"HeLa-APL; read-out: GI50 HELA-APL, HELA-APL, SRB, 48 hours exposure",95.1 nM
same,CC50,HeLa-APL; [2],0.951 µM
same,TGI MEL-28,"SK-MEL-28; MEL-28, SRB, 48 hours exposure",1.34E−07 Molar
same,GI50,"SK-MEL-28; MEL-28, SRB, 48 hours exposure",0.0614 µM
same,CC50,"SK-MEL-28; MEL-28, SRB, 48 hours exposure",0.594 µM
same,TGI PANC-1,"PANC-1; PANC-1, SRB, 48 hours exposure",1.45E−06 Molar
same,GI50,"PANC-1; PANC-1, SRB, 48 hours exposure",0.0928 µM
same,CC50,"PANC-1; PANC-1, SRB, 48 hours exposure",14.2 µM
same,TGI LOVO-DOX,LoVo-Dox; [3],1.42E−05 Molar
same,GI50,LoVo-Dox; [3],0.431 µM
same,CC50,LoVo-Dox; [3],14.2 µM
same,TGI LNCAP,"LNCaP; LNCAP, SRB, 48 hours exposure",6.46E−08 Molar
same,GI50,"LNCaP; LNCAP, SRB, 48 hours exposure",26.1 nM
same,CC50,"LNCaP; LNCAP, SRB, 48 hours exposure",0.261 µM
same,TGI IGROV,"IGROV-1; IGROV, SRB, 48 hours exposure",1.02E−07 Molar
same,GI50,"IGROV-1; IGROV, SRB, 48 hours exposure",0.0407 µM
same,CC50,"IGROV-1; IGROV, SRB, 48 hours exposure",1.02 µM
same,TGI DU145,"DU-145; DU145, SRB, 48 hours exposure",8.48E−07 Molar
same,GI50,"DU-145; DU145, SRB, 48 hours exposure",0.0755 µM
same,CC50,"DU-145; DU145, SRB, 48 hours exposure",14.2 µM
same,TGI K562,"K-562; K562, SRB, 48 hours exposure",5.66E−08 Molar
same,GI50,"K-562; K562, SRB, 48 hours exposure",21.7 nM
same,CC50,"K-562; K562, SRB, 48 hours exposure",0.206 µM
